Laboratory results: PMC5802278, “Molecular and cellular mechanisms of HIF prolyl hydroxylase inhibitors in clinical trials” (Chemical Science, 2017)
Where two headings read alike, the source gives them in different places.

Key:
[1] = tested on: HIF-1α Pro402 (NODD), Pro564 (CODD) and Asn803 hydroxylation in RCC4 cells; test: Immunoblotting of HIF-1α hydroxylation in VHL-deficient RCC4 cells; assay type: cell-based, human; settings: 6 hours; for inhibition of HIF-1α NODD and CODD hydroxylation: titration; for comparison of inhibition of NODD and CODD hydroxylation: RCC4 cells, 10, 50 and 100 μM
Method: To test whether the cellular HIF-α induction occurs via inhibition of HIF-α hydroxylation, we utilized a Von Hippel–Lindau (VHL)-deficient renal cell carcinoma cell line RCC4, in which HIF-α is constitutively stabilized in normoxia due to loss of functional VHL.[77] We used antibodies specific for hydroxylation at the N-terminal and C-terminal oxygen-dependent degradation domains, Pro402 (NODD) and Pro564 (CODD) at HIF-1α.[78] HIF-1α hydroxylation status was analyzed after 6 hours treatment. […]. page 15: […]
Cell Culture and Immunoblotting
HeLa and RCC4 cells were cultured in Dulbecco’s Modified Eagle’s Medium (DMEM; Sigma Aldrich D6546-500ML) supplemented with 10% fetal bovine serum (Sigma Aldrich F7524-500ML), 4 mM L-glutamine (Sigma Aldrich G7513- 100ML), 50 U/mL penicillin, and 50 μg/mL streptomycin (Sigma Aldrich P0781-100ML). Cells were seeded to reach 90-100% confluency prior to compound treatment. Cells were exposed to the inhibitor at a final concentration of 1% DMSO for 5-6 hours. For Fe(II) titration in the presence of inhibitors, ferric ammonium citrate was added to the cells for further 16 hours after 6 hours of incubation […]
Cells were harvested in urea/SDS buffer (6.7 M urea, 10 mM Tris-Cl pH 6.8, 10% glycerol, and1% SDS) supplemented with 1mM dithiothreitol following a phosphate-buffered saline (PBS) rinse. Cell extracts were analyzed with SDS-PAGE, electroblotted to polyvinylidene difluoride (PVDF) membrane (Millipore) and probed with the corresponding primary antibody for 1 hour at room temperature or overnight at 4 °C. The secondary antibody specific to primary antibody species conjugated with HRP were applied at room temperature for 1 hour.
The antibodies used for immonoblotting were as follows: pan-anti-HIF-1α (clone 54, BD Transduction Laboratories™), anti-HIF-1α Hyp402 (catalogue number 07-1585, Merck Millipore), anti-HIF-1α Hyp564 (D43B5, Cell Signaling), anti-HIF-1α HyN803 (a generous gift from Lee et al.15), PHD216, PHD316, and HRP-conjugated anti-β-actin (clone AC15, Abcam). Details of antibodies used are given in Tian et al.17 Detection of signal was achieved using SuperSignal™ West Dura Extended Duration Substrate kTM it (Thermo Scientific 34075, unless otherwise stated) either with film or ChemiDoc MP (BIO-RAD) imaging system. TM Quantification of the immunobloting signal was performed with Image Lab software from […]

[2] = biological target: T1, PHD2 catalytic domain (residues 181-426) (Homo sapiens, UniProt Q9GZT9); test: 1H CPMG NMR screening of equimolar enzyme-inhibitor mixture; assay type: binding; parameters: The catalytic domain of human PHD2 (residues 181-426) was used in all; made in house; settings: equimolar enzyme-inhibitor mixture (50 µM)
[3] = biological target: JARID1B (KDM5B) (Homo sapiens, UniProt Q9UGL1); test: AlphaScreen histone demethylase assay; assay type: biochemical
[4] = biological target: PHD2 (Homo sapiens, UniProt Q9GZT9); test: LC-MS based RapidFire PHD2 hydroxylation assay; assay type: biochemical; settings: 150 nM isolated recombinant human PHD2, LC-MS based RapidFire assay
Method: LC-MS PHD2 hydroxylation assays
The PHD2 RF-MS RapidFire liquid chromatography mass spectrometry (RF-MS) assay monitors turnover of a C-terminal oxygenase dependent domain (CODD) peptide substrate
(Pro564) in an endpoint type assay format (typical enzyme incubation time of 15 minutes).
Tris(hydroxymethyl)aminomethane was from Fisher. Ferrous ammonium sulfate (FAS), 2-oxoglutarate (2OG) and L-ascorbic acid were from Sigma Aldrich; solutions of these were prepared freshly each day. All inhibition assays were carried out in 384-well polypropylene plates (Greiner Bio-One). PHD2 assays were performed in assay buffer (50 mM Tris.Cl pH
well polypropylene assay plates. The final assay concentration of DMSO was kept constant at 0.5%. PHD2 protein was prepared at a concentration of 300 nM in assay buffer and 25 μl dispensed across each 384-well assay plate. […]
water containing 0.1% formic acid onto the mass spectrometer. Peptide charge states were monitored in positive mode. Ion chromatogram data were extracted for the +2 charge state and peak area data integrated using RapidFire Integrator software (Agilent). % conversion of the CODD peptide substrate to the +16 hydroxylated peptide was calculated using the equation: % conversion = 100 x hydroxylated / (hydroxylated + non-hydroxylated peptide). IC50 values were determined from non-linear regression plots using GraphPad prism.

[5] = biological target: T1, PHD2 catalytic domain (residues 181-426); test: AlphaScreen antibody based PHD2 assay (HIF-1α CODD peptide hydroxylation); assay type: biochemical; parameters: 10 nM PHD2 (catalytic domain, residues 181–426); made in house; settings: AlphaScreen; 5 nM PHD2, 2 μM 2OG, 60 nM biotinylated CODD peptide; read-out: IC50 PHD2
Method: AlphaScreen antibody based PHD assays were as reported[39] using 384-well white ProxiPlates™ (PerkinElmer). Reactions were performed in 50 mM HEPES buffer pH 7.5, 0.01% Tween-20 and 0.1% BSA in a final volume of 10 μL at room temperature. […] The luminescence signal was measured using an Envision (Perkin Elmer) plate reader. Data were analyzed utilizing GraphPad prism.

[6] = biological target: FIH (Homo sapiens, UniProt Q9NWT6); test: LC-MS (RapidFire) FIH hydroxylation assay; assay type: biochemical
FIH, sequence (Q9NWT6 whole entry): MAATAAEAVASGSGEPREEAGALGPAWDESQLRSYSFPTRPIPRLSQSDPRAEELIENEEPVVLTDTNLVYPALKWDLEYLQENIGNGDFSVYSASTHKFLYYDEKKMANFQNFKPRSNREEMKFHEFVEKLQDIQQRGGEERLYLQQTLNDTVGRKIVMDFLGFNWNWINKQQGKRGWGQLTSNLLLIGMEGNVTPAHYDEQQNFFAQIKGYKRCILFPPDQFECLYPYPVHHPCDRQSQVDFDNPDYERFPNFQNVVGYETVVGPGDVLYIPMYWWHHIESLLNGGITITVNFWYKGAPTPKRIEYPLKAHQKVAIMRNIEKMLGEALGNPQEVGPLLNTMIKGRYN

T1 sequence (Q9GZT9 181-426): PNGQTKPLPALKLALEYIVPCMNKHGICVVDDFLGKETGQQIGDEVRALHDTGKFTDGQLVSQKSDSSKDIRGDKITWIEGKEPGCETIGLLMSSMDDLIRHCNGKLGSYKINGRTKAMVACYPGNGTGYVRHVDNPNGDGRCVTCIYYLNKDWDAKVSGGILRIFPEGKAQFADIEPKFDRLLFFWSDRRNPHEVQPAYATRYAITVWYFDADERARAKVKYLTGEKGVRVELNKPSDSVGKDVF
JARID1B (KDM5B), sequence (Q9UGL1 whole entry): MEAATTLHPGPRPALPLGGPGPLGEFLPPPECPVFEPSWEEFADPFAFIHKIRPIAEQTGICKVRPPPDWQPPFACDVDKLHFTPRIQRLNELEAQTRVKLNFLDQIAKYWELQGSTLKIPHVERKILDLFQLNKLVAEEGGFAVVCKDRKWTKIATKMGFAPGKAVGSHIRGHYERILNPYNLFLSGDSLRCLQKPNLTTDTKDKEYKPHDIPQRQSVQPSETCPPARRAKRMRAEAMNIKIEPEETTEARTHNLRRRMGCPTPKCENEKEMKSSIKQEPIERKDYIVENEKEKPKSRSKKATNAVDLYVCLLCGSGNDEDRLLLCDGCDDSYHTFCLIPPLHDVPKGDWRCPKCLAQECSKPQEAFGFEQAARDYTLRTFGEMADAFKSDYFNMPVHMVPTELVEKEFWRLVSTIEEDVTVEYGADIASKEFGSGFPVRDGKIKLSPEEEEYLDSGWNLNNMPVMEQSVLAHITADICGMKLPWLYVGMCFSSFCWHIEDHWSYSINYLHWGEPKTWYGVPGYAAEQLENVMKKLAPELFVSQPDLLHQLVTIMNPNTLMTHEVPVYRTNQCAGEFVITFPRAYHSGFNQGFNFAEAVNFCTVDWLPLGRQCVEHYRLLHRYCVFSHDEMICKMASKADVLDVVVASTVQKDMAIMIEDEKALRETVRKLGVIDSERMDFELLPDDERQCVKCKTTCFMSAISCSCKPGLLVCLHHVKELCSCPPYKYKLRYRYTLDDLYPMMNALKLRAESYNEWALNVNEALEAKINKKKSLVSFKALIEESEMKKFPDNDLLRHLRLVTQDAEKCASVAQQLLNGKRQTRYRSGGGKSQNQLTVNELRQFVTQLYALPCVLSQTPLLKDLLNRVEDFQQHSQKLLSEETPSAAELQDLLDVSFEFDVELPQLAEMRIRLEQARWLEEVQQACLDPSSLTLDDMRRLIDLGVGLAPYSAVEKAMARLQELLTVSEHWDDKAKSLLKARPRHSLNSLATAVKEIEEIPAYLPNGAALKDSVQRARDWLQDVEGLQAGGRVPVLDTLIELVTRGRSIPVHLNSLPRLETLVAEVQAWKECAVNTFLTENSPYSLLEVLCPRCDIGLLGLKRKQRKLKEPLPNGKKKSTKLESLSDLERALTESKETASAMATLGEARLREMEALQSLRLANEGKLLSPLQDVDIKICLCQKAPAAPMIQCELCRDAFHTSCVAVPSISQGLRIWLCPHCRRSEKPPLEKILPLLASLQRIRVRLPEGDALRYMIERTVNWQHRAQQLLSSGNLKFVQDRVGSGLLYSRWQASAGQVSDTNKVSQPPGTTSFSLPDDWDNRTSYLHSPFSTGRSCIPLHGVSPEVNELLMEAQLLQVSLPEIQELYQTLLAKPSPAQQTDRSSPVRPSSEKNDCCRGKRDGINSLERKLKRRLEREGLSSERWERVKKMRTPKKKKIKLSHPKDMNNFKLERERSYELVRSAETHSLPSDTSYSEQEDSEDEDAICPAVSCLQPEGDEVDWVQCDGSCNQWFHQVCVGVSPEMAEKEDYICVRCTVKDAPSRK
PHD2, sequence (Q9GZT9 whole entry, the tested form may be a part): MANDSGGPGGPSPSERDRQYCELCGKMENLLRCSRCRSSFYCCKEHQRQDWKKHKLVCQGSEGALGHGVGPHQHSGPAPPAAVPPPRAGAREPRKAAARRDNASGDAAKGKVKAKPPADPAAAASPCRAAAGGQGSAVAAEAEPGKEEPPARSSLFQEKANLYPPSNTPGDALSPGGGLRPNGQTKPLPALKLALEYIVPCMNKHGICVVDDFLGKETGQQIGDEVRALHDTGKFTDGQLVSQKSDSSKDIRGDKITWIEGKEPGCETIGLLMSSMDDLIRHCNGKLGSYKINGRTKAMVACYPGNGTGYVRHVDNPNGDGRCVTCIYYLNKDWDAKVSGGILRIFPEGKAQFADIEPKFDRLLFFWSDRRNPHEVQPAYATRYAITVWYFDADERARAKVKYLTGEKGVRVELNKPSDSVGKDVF

SMILES | inhibition of HIF-1α NODD and CODD hydroxylation ([1]; RCC4 cells) | binding by 1H CPMG NMR [2] | IC50 ([3]; read-out: IC50 JARID1B (KDM5B)) | IC50 [4] | IC50 [5] | inhibition of NODD hydroxylation ([1]; RCC4 cells, 50 μM) | inhibition of NODD hydroxylation ([1]; RCC4 cells, 100 μM) | inhibition of CODD hydroxylation ([1]; RCC4 cells, up to 100 μM) | inhibition of hydroxylation of Asn803 ([1]; RCC4 cells, up to 200 μM) | comparison of inhibition of NODD and CODD hydroxylation [1] | inhibition of CODD hydroxylation ([1]; RCC4 cells, 50 μM) | inhibition of HIF-1α Asn803 hydroxylation ([1]; RCC4 cells, up to 100 μM) | IC50 [6] | IC50 for FIH relative to PHD2 ([6]; isolated protein assays, Table 1) | IC50 ([6]; isolated recombinant enzyme, read-out: IC50 FIH) | IC50 [3]
CC(C)(C)OC(=O)c1ccc(-n2[nH]cc(-n3ccnn3)c2=O)nc1 [IOX4] | inhibited both NODD and CODD hydroxylation in a dose dependent manner | strong binding | 87 µM | 540 nM | 3 nM |  |  |  |  |  |  |  |  |  |  | 
O=C(O)CNC(=O)c1ncc(-c2cccc(Cl)c2)cc1O [Vadadustat] |  |  | 30 µM |  |  | no sign of PHD inhibition | only slight inhibition | no clear inhibition | not observed |  |  |  |  |  |  | 
Cc1nc(C(=O)NCC(=O)O)c(O)c2ccc(Oc3ccccc3)cc12 [FG-4592] | inhibited both NODD and CODD hydroxylation in a dose dependent manner |  | > 100 µM |  |  | significantly inhibited |  |  |  | greatest inhibition of CODD hydroxylation among the inhibitors | clear inhibition | no sign of HIF-1α Asn803 hydroxylation inhibition | > 100 µM |  |  | 
O=c1c(-n2ccnn2)c[nH]n1-c1cc(N2CCOCC2)ncn1 [Molidustat] | inhibited both NODD and CODD hydroxylation in a dose dependent manner | strong binding | > 100 µM | 1320 nM | 7 nM |  |  |  |  | weaker inhibition of both hydroxylation sites compared to FG-4592 and GSK1278863 at 10 μM |  | no sign of HIF-1α Asn803 hydroxylation inhibition |  | > 100 fold | 66 µM | 
O=C(O)CNC(=O)C1C(=O)N(C2CCCCC2)C(=O)N(C2CCCCC2)C1=O [GSK1278863] | inhibited both NODD and CODD hydroxylation in a dose dependent manner |  |  |  |  |  |  |  |  | better inhibits NODD than CODD hydroxylation |  | no sign of HIF-1α Asn803 hydroxylation inhibition |  |  |  | > 100 µM
